Data from the supplement of paper PMC10307832.

Legend:
[1] = compound: COc1cc([C@@H]2c3cc4c(cc3[C@@H](O[C@@H]3O[C@@H]5CO[C@@H](C)O[C@H]5[C@H](O)[C@H]3O)[C@H]3COC(=O)[C@H]23)OCO4)cc(OC)c1O [Etoposide] + Cc1cc(Nc2cc(N3CCN(C)CC3)nc(Sc3ccc(NC(=O)C4CC4)cc3)n2)n[nH]1 [Tozasertib] (partner 0.1 µM); assay: relative viability (nuclei count vs DMSO), 5 days (fraction); higher = more cells survive
Outline: (§1)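 The day after seeding in 1536-well plates, lung cancer cell lines were treated by pin tool with a single drug, or with a fixed anchor-drug dose together with five library-drug doses (not always all listed) in √10 steps. After 5 days, a combined fix-and-stain solution (final 0.05% Triton X-100, 1% formaldehyde, 1 ug/ml Hoechst) was added. Nuclei counted on 4× images gave relative viability as treated counts over vehicle counts, reported as the median of duplicate plates.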

[2] = compound: CC1=C(N=C(N=C1N)[C@H](CC(=O)N)NC[C@@H](C(=O)N)N)C(=O)N[C@@H]([C@H](C2=CN=CN2)OC3C(C(C(C(O3)CO)O)O)OC4C(C(C(C(O4)CO)O)OC(=O)N)O)C(=O)N[C@H](C)[C@H]([C@H](C)C(=O)N[C@@H]([C@@H](C)O)C(=O)NCCC5=NC(=CS5)C6=NC(=CS6)C(=O)NCCC[S+](C)C)O [Bleomycin] + COc1cc2c(Oc3ccc(NC(=O)C4(C(=O)Nc5ccc(F)cc5)CC4)cc3F)ccnc2cc1OCCCN1CCOCC1 [Foretinib] (partner 0.25 µM); assay: as above; conditions: main component drawn
Outline: as §1

Cell Line	relative viability ([1]; first compound 0.01 µM)	relative viability ([1]; first compound 0.03162 µM)	relative viability ([1]; first compound 0.1 µM)	relative viability ([1]; first compound 0.3162 µM)	relative viability ([1]; first compound 1 µM)	relative viability ([2]; first compound 0.01 µM)	relative viability ([2]; first compound 0.03162 µM)	relative viability ([2]; first compound 0.1 µM)	relative viability ([2]; first compound 0.3162 µM)	relative viability ([2]; first compound 1 µM)
NCI-H1975	0.721	0.67	0.785	0.495	0.197	0.708	0.582	0.434	0.191	0.198
CAL-12T	0.256	0.297	0.408	0.264	0.28	0.993	0.706	0.579	0.199	0.174
NCI-H1623	0.416	0.392	0.349	0.396	0.259	0.758	0.942	0.774	0.646	0.418
HCC-44	0.759	0.886	1.11	0.57	0.317	–	–	–	–	–
EKVX	0.412	0.355	0.312	0.326	0.221	0.707	0.889	0.423	0.335	0.314
NCI-H1651	0.675	0.692	0.547	0.159	0.156	0.716	0.499	0.496	0.31	0.213
NCI-H1944	0.258	0.278	0.211	0.182	0.168	0.55	0.391	0.384	0.225	0.203
NCI-H1703	–	–	–	–	–	0.298	0.325	0.306	0.283	0.275
Calu-6	–	–	–	–	–	0.646	0.549	0.29	0.132	0.107
EBC-1	–	–	–	–	–	0.104	0.106	0.107	0.106	0.105
A-427	0.213	0.224	0.219	0.165	0.147	0.862	0.873	0.935	0.481	0.284
NCI-H2405	0.745	0.77	0.86	0.576	0.294	0.929	1.04	0.992	0.796	0.585
NCI-H1355	0.515	0.536	0.433	0.313	0.228	0.931	0.971	0.937	0.52	0.348
NCI-H358	0.112	0.107	0.107	0.0887	0.0917	0.606	0.591	0.556	0.351	0.254
RERF-LC-KJ	0.532	0.448	0.493	0.386	0.316	0.735	0.693	0.633	0.377	0.307
NCI-H23	0.344	0.333	0.29	0.201	0.163	0.699	0.586	0.408	0.247	0.218
HOP-62	0.388	0.386	0.366	0.279	0.203	0.596	0.458	0.39	0.193	0.127

Cell Line	relative viability ([1]; first compound 0.01 µM)	relative viability ([1]; first compound 0.03162 µM)	relative viability ([1]; first compound 0.1 µM)	relative viability ([1]; first compound 0.3162 µM)	relative viability ([1]; first compound 1 µM)	relative viability ([2]; first compound 0.01 µM)	relative viability ([2]; first compound 0.03162 µM)	relative viability ([2]; first compound 0.1 µM)	relative viability ([2]; first compound 0.3162 µM)	relative viability ([2]; first compound 1 µM)
HARA	0.149	0.112	0.127	0.0757	0.0743	0.794	0.793	0.777	0.397	0.379
PC-14	0.595	0.536	0.754	0.496	0.213	0.773	0.566	0.447	0.137	0.0938
NCI-H1755	0.57	0.577	0.565	0.483	0.44	0.838	0.976	0.948	0.638	0.592
HCC-78	0.375	0.488	0.988	0.264	0.184	0.533	0.519	0.534	0.399	0.507
IA-LM	–	–	–	–	–	1.09	0.96	0.899	0.56	0.241
NCI-H441	0.511	0.541	0.418	0.289	0.264	0.72	0.613	1.08	0.623	0.46
NCI-H322M	0.484	0.47	0.423	0.441	0.425	0.79	0.951	0.865	0.563	0.401
NCI-H2087	0.214	0.248	0.233	0.205	0.166	–	0.827	0.872	0.205	0.158
COR-L23	0.189	0.236	0.262	0.145	0.109	0.825	0.781	0.412	0.154	0.144
NCI-H2126	0.739	0.854	0.632	0.63	0.254	1.17	1.26	1.23	0.903	0.491
LC-2-ad	0.39	0.441	0.327	0.339	0.285	0.754	0.729	0.483	0.264	0.281
NCI-H522	0.589	0.554	0.539	0.59	0.516	–	–	–	–	–
NCI-H1299	–	–	–	–	–	1.07	1.08	0.934	0.497	0.277
NCI-H1648	–	0.359	0.416	0.282	0.28	–	–	–	–	–
A549	–	–	–	–	–	0.812	0.917	0.635	0.182	0.0665
NCI-H1563	–	–	–	–	–	0.838	0.803	0.734	0.647	0.61
